Test results taken from US20190055512A1, “METHODS AND COMPOSITIONS FOR SUBSTITUTING MEMBRANE LIPIDS IN LIVING CELLS” (The Research Foundation for The State University of New York, priority 2016, published 2019).

Columns and labels:
MDA-MB-231 cells = assay: Transferrin (TF) endocytosis; type: cell-based; settings: cholesterol depletion, 10 mM MβCD, 30 min, 37° C.
Method: Measurement of Transferrin (TF) Endocytosis. MDA-MB-231 cells were plated in 2 ml RPMI 1640 at 6×10^5 on a coverslip in a 35 mm dish. After 1 d, they were subjected to cholesterol depletion or phospholipid exchange. For cholesterol depletion, cells were washed with 1 ml DPBS (2-3 times) and treated with 10 mM M MβCD/DMEM for 30 min at 37° C. in the CO2 incubator. For phospholipid substitution, the DPBS washed cells were treated with mixture of 40 mM MαCD and a combination of 0.75 mM bSM and 0.75 mM POPC in serum free medium for 30 rain, again while maintained at 37° C. in the CO2 incubator. After cholesterol depletion or phospholipid exchange, cells were washed with 1 ml DPBS three times. Then 50 μg/ml TF-AF488 in DMEM was added to the cells and incubated for 10 min in room temperature in the dark. Next, cells were washed with 2 ml DPBS three times and subjected to an additional 3 washes on ice with an acid solution (100 mM citric acid, 140 mM NaCl in distilled water pH adjusted to 1.75), incubating the cells with the solution for 3 min during each wash. The acid wash solution was removed by washing three times with 2 ml of 1×PBS and the cells then fixed using 2 ml 3% PFA for 30 min (10 min on ice and 20 min at room temperature). […]

A549 cells [1] = assay: Delivery of fluorescent NBD-DPPE into cells, kinetics of exchange; type: cell-based, human
Method: Microscopy and Kinetics of Exchange Monitored with Fluorescent Probes and ^3H Acetate: Cyclodextrin-lipid complex containing 1.5 mM lipid (90% bSM and 10% NBD-DPPE) and 40 mM MαCD was prepared. Then, 500 μl of the cyclodextrin-lipid complex was added to 90% confluent A549 cells cultured in 6-well plates (Corning Inc., Durham, N.C.). The cells were incubated for different times at 37° C., and then the cyclodextrin-lipid complex was removed. After three washes with 2 ml PBS the cells were removed from the plate by scraping in 1 ml PBS. The cells were pelleted by centrifugation at 3,000 rpm for 3 minutes and re-suspended in 1 ml PBS. Seven μl aliquots of cells were loaded on microscope slides and covered with a, coverslip. NBD fluorescence was then imaged by confocal laser scanning microscopy using a Zeiss LSM 5 Pascal confocal laser scanning microscope system (Carl Zeiss AG, German).
In other experiments, fluorescence intensity was measured for the each well of cells whereby cells were placed in fluorescence cuvettes using Fluorolog (Jobin Yvon Horiba, Edison, N.J.) with an excitation wavelength of 465 nm and emission wavelength of 534 nm. A non-specific lipid transfer control was prepared in a similar fashion without cyclodextrin.
In an analogous experiment, A549 cells were ^3H labeled and subjected to lipid exchange with cyclodextrin-lipid complex. The cells were collected at different times and lipids extracted and separated on TLC as described above. Radioactivity in the PS+PI and SM bands was subsequently measured by scintillation counting.

A549 cells [2] = assay: Dithionite quenching of the NBD-DPPE exchanged into the cells; type: cell-based, human
Method: Dithionite Quenching of the NBD-DPPE Exchanged into the Cells. Cells into which NBD-DPPE was exchanged were prepared as described above, except at either 15° C., room temperature (23° C.) or 37° C. Fluorescence was measured before and (as a function of time) after the addition of a freshly prepared solution of IM dithionite in IM Tris buffer (pH 10) to the cells providing a final dithionite concentration of 50 mM.

A549 cells [3] = assay: Phospholipid content by LC/MS/MS after lipid exchange; type: cell-based, human; settings: mass spectrometry
Method: Exchange of Lipids between Cells and Cyclodextrin-lipid Complexes. Unless otherwise noted, the cells are cultured in 10 cm plates with 10 mL medium. After removing the growth medium and washing three times with 10 ml DPBS, a 1500 μL aliquot of cyclodextrin-lipid complex containing MαCD (formed using 1.5 mM lipid and 40 mM MαCD concentrations) was added to 90% confluent mammalian cells cultured in […] cell culture dishes (Corning Incorporated, Durham, N.C.). The cells were then incubated with the cyclodextrin-lipid complex for 1 hour at 37° C., unless otherwise noted. After removal of the cyclodextrin-lipid complex and three washes with 10 mL PBS the cells were removed from the plate by scraping in 5 mL PBS. The cells were then pelleted by centrifugation for 3 minutes at 3,000 rpm and the lipid composition of the pellet was analyzed. […]
Phospholipid Content by LCMS/M S: Phospholipids were extracted from samples as set forth above. […] The class specific phospholipid extracts for each sample were injected on an Agilent (Santa Clara Calif., USA) Eclipse XDB-C8 reversed phase column (4.6×50 mm, 1.8 μm particle size) for separation of molecular species within each class by gradient elution and detected by mass spectrometry utilizing scheduled multiple reaction monitoring. In this manner, a peak with unique column elution time and mass-to-fragment profile was measured. […]

A549 cells [4] = assay: Charred TLC of cellular lipids after exchange; type: cell-based, human; settings: exchange with 3 mM exogenous POPC and MαCD, 1 hour; FIG. 5C lane 4
Method: High Performance Thin Layer Chromatography. The samples and pure lipid standards were dissolved in 1:1 (v:v) chloroform/methanol. […] The dissolved lipids then applied to HP-TLC (Silica Gel 60) plates (Merck, KGaA, Darmstadt, Germany) or Uniplate Silica Gel G plates (Analtech, Inc., Newark, Del.) and chromatographed in 65:25:5 (v:v) chloroform/methanol/28.0-30.0 (v/v) % ammonium hydroxide. Following chromatography, the TLC plates were air-dried and saturated with 3% (w/v) cupric-acetate-8% (v/v) phosphoric acid by spraying, and then air-dried again. Plates were then charred at 180° C. to develop lipid bands. Lipid band intensity was measured using Image J software (National Institutes of Health). Lipids in samples were quantified by comparing background-subtracted band intensity with that of a curve composed of various standard amounts of each lipid chromatographed on the same TLC plate. The intensity in the standard bands was fit to a linear intensity versus lipid quantity curve.
Analysis of exogenous lipid exchange over time after delivery into A549 cells. After a 1 h at 37° C. treatment with 40 mM MαCD mixed with 1.5 mM bSM, A549 cells were washed three times with DPBS. Then the cells were cultured for 0, 2, 4, and 6 hours in 10 mL RPMI 1640 medium supplemented with 10% fetal bovine serum. […]

A549 cells [5] = assay: Cell morphology (cell rounding) and cell condition during incubation with MαCD and lipids
Excerpt: In certain embodiments, the appropriate lipid concentration can be determined prior to implementing the exchange methods of the instant disclosure. For example, the optimal lipid concentration can be determined by screening a series of various lipid concentrations. For example, cyclodextrin-lipid complexes of the present disclosure can be formed using a constant alpha-cyclodextrin concentration and varying lipid. Once various solutions of cyclodextrin and lipid are made they can be applied to cells using the methods described herein. This will enable the user to identify the highest concentration(s) lipids where the cells are not negatively affected, i.e., no cell rounding over time is optimal for lipid exchange, as it minimizes cell loss during processing. This can be determined, for example, by splitting cells into each well of a multi-well plate one day before the experiment and growing the cells to confluence. Then equal aliquots of the solutions having various concentrations of lipid are placed in separate wells and incubated at 37° C. for 1-2 hours.
In certain embodiments, the appropriate cyclodextrin concentration can be determined prior to implementing the exchange methods of the instant disclosure. For example, the optimal cyclodextrin concentration can be determined by screening a series of various cyclodextrin concentrations. For example, cyclodextrin-lipid complexes of the present disclosure can be formed using a constant lipid concentration but varying alpha-cyclodextrin concentration. Once various solutions of cyclodextrin and lipid are made they can be applied to cells using the methods described herein. […] This can be determined, for example, by splitting cells into each well of a multi-well plate one day before the experiment and growing the cells to confluence. Then equal aliquots of the solutions having various concentrations of cyclodextrin are placed in separate wells and incubated at 37° C. for 1-2 hours.
In some embodiments, the instructions for the analysis of lipid exchange include methods for identifying optimal concentrations of lipids and/or cyclodextrins for use in exchanging lipids between a cyclodextrin-lipid complex of the present disclosure and a cell membrane. […] As such, instructions included within kits of the instant disclosure can include, instructions for screening a series of various cyclodextrin or lipid concentrations. For example, the instructions can include maintaining a constant lipid concentration and altering numerous alpha-cyclodextrin concentrations or vice versa. […] This can be determined, for example, by splitting cells into each well of a multi-well plate one day before the experiment and growing the cells to confluency. […]

Methyl-β-cyclodextrin [MβCD]
clathrin-mediated endocytosis of transferrin (MDA-MB-231 cells): strongly inhibited

CCCCCCCCCCCCCCCC(=O)OC[C@H](COP(=O)(O)OCCNc1ccc([N+](=O)[O-])c2nonc12)OC(=O)CCCCCCCCCCCCCCC [NBD-DPPE, 1,2-dipalmitoyl-sn-glycero-3-phosphoethanolamine-N-(7-nitro-2-1,3-benzoxadiazol-4-yl)]
half-time of delivery of NBD-DPPE and removal of endogenous SM (A549 cells [1]; 37° C., FIG. 2A): 15 to 20 min
Half-time of lipid exchange (endogenous SM removal / NBD-DPPE delivery) (A549 cells [1]; A549 cells, 37° C., FIG. 2A legend): 10 to 15 min
NBD-lipid exchanged into cells accessible to dithionite (A549 cells [2]; FIG. 3B): 70-80%
fluorescence protected from dithionite reduction (A549 cells [2]; incubation at 15° C.): about 20%
fluorescence protected from dithionite reduction (A549 cells [2]; incubation at 37° C., extrapolated to time zero): approximately 30%

CCCCCCCCCCCCC/C=C/[C@@H](O)[C@H](COP(=O)([O-])OCC[N+](C)(C)C)NC(=O)CCCCCCCCCCCCCCCC [C17:0 SM, N-hepadecanoyl-D-erythro-sphingosylphosphorylcholine]
exogenous C17:0 SM in cells after exchange relative to total endogenous cell SM prior to exchange (A549 cells [3]): 2.1 fold

1-palmitoyl-2-oleoyl-sn-glycerol-3-phosphocholine [POPC]
removal of endogenous SM (A549 cells [4]): most endogenous SM was removed
incubation time at which normal morphology begins to change (A549 cells [5]; 3 mM POPC, 40 mM MαCD): ≈45′
incubation time at which normal morphology begins to change (A549 cells [5]; 3 mM POPC, 80 mM MαCD): ≈15′
incubation time at which normal morphology begins to change (A549 cells [5]; 6 mM POPC, 40 mM MαCD): ≈45′
incubation time at which normal morphology begins to change (A549 cells [5]; […] POPC, 40 mM MαCD): ≈15′

OC[C@H]1O[C@@](CO)(O[C@H]2O[C@H](CO)[C@@H](O)[C@H](O)[C@H]2O)[C@@H](O)[C@@H]1O [sucrose]
amount of fluorescent lipid delivered to cells relative to buffer only (A549 cells [1]; 40 or 240 mM sucrose substituted for MαCD): did not increase
